The experiment deals with T1, GABAB receptor (Mus musculus, UniProt Q80T41+Q9WV18).
T1 construct: a mouse brain cortex membrane (4 μg); tissue Japan SLC, Inc. (ddY mice); host or cells: mouse brain cortex membrane
Put plainly: [35S]GTPγS binding test for PAM action, mouse brain cortical membrane. Format: biochemical. Particulars: 100 μM GABA = 100%; for EC50: concentration raising reaction rate from 20% with 0.3 μM GABA to 50%, mouse brain cortex membrane, read-out: Potency (PAM Potency of GABAB); for Emax: read-out: Efficacy (PAM Efficacy of GABAB). The protocol: The function of the GABAB receptor of the compound of the present invention was evaluated using a [^35S] GTPγS binding test. This method is used for the detection of the PAM action of the compound on the GABAB receptor (Journal of Pharmacology and Experimental Therapeutics, 2003, vol. 307(1), p. 322-330; and Molecular Pharmacology, 2001, vol. 60(5), p. 963-971).
The mouse brain cortical membrane was prepared with reference to a method for preparing a rat brain membrane (European Journal of Pharmacology, 1990, vol. 187 (1), p. 27-38).
The cortex (about 30 g) was cut out of the brains of 90 ddY mice (Japan SLC, Inc.). An A buffer was added to the cortex (cortex/A buffer=about 1:3 (wt/vol)), and homogenized with a glass Teflon-lined homogenizer (Teflon: registered trademark) on ice. The homogenate was centrifuged (750 g, 10 min, 4° C.) and a supernatant was then obtained. An A buffer (90 mL) was added to pellets and homogenized on ice, and a supernatant (750 g, 10 min, 4° C.) was then obtained. By repeating this operation, the supernatant was collected.
The supernatant was centrifuged (18000 g, 15 min, 4° C.). Ultrapure water (54 mL) was added to the pellets, left to stand for 30 min on ice, and then centrifuged (39000 g, 20 min, 4° C.). The pellets were suspended in a KH buffer (54 mL), repeatedly frozen and thawed, and centrifuged (18000 g, 15 min) at 4° C. The buffer was added to the pellets and then frozen and thawed, and this operation was repeated until the centrifugation. By a Bradford method using a protein assay (Protein assay CBB solution; Nacalai Tesque, Inc.), a KH buffer suspension of the pellet was prepared at a protein concentration of 10 mg/mL.
The PAM action of the GABAB receptor in the mouse brain cortex of a test drug was evaluated. To each of wells of a 96-well microplate, a test drug diluted with a B buffer at each concentration (3 nM to 30 μM), a mouse brain cortex membrane (4 μg), [^35S] GTPγS (final concentration of 0.34 nM, Muromachi Yakuhin Co., Ltd.; Institute of Isotopes Co., Ltd.), GABA (final concentration of 0.3 μM; Sigma) were added in this order, followed by standing at room temperature for 1 hour. With a harvester (Filtermate, Perkin-Elmer, Inc.), the suspension was suction-filtered through a glass filter (UniFilter 96-well GF/B filter plates, Perkin-Elmer, Inc.). The glass filter was washed with a C buffer that had been ice-cooled. After drying the glass filter, a liquid scintillation cocktail (50 μL, MicroScinti-PS; PerkinElmer, Inc.) was added to each well. The amount of [^35S] GTPγS bound to the membrane was measured on a plate reader (TopCount, PerkinElmer, Inc.).
The maximum reaction rate of 100 μM GABA was taken as 100%. […] At a time when the test drug was not added, the concentration of the test drug that increased the reaction rate from 20% with 0.3 μM GABA to 50% was taken as a PAM Potency (μM) of the GABAB of the test drug. In the presence of 0.3 μM GABA, the maximum reaction rate of the effect on the GABAB receptor when the test drug was administered up to maximum 30 μM was taken as a PAM Efficacy (%) of the GABAB of the test drug.
The Potency and Efficacy of several representative Example Compounds of the present invention are shown in Table below (In the Table, Ex represents Example Compound No. The “Potency” represents the PAM Potency of GABAB of the test drug, and the “Efficacy” represents PAM Efficacy (%) of GABAB of the test drug. These shall apply hereinafter).

Where [1] appears, read: maximum reaction rate in presence of 0.3 μM GABA, test drug up to 30 μM.

Structures can show the parent of a compound that is named as a salt.

T1 sequence (Q9WV18 20-960): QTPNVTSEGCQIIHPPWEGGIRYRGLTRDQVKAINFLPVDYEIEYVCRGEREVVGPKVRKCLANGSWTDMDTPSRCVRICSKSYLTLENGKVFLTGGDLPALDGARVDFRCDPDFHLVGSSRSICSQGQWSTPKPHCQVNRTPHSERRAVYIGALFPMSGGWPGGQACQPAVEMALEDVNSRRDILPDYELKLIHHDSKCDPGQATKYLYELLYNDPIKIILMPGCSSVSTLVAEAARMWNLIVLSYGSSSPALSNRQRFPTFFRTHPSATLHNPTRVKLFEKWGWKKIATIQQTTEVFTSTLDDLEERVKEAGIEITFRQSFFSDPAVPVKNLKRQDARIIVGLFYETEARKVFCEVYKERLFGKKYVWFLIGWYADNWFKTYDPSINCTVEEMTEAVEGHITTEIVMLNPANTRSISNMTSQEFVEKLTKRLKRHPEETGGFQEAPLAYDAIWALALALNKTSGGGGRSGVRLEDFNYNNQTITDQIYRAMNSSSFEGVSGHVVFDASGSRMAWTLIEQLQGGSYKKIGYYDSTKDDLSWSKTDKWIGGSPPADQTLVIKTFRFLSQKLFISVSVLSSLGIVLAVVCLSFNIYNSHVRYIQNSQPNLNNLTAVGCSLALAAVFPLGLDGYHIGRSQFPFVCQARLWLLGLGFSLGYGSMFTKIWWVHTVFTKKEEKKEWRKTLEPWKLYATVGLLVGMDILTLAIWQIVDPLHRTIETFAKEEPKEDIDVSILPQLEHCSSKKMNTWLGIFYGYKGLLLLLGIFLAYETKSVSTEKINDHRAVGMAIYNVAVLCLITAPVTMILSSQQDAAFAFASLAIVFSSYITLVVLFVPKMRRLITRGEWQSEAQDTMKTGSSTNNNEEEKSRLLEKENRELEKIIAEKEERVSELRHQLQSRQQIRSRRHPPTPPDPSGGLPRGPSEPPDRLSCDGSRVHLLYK
T1 sequence (Q80T41 41-940): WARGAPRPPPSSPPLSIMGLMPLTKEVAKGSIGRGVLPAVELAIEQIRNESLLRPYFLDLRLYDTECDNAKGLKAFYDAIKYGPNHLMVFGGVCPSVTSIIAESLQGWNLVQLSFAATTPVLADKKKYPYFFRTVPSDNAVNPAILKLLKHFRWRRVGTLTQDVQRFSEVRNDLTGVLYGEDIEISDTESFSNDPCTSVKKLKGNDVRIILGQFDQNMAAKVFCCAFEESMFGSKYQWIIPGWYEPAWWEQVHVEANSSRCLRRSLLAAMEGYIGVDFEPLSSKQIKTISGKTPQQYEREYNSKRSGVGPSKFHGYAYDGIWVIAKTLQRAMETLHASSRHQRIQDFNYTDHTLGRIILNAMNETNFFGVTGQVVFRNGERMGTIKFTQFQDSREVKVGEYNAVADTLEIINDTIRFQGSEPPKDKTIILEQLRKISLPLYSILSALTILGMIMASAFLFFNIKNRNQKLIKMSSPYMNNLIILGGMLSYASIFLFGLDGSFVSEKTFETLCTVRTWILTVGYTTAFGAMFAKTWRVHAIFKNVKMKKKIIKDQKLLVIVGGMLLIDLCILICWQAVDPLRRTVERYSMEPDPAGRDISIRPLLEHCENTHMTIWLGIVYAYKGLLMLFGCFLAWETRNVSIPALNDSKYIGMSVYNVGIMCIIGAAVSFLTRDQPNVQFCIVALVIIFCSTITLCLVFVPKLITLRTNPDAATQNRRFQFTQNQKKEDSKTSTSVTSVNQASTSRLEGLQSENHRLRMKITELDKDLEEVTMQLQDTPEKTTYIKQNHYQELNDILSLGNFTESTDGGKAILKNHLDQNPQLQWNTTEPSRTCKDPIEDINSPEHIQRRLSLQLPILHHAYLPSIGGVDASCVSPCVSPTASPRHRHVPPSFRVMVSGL

With `Cc1nc(CN2CCC(C)(C)CC2)c2cc(C3CCC(C)(C)CC3)sc2n1` [Ex44], the EC50 is 270 nM. For the same compound, the Emax under setting [1] was determined as 119%.
On the same counts, the results for `Cc1nc(CN2CCN(C(=O)CO)CC2(C)C)c2cc(C3CCC(C)(C)CC3)sc2n1` [Ex155, 1-(4-{[6-(4,4-dimethylcyclohexyl)-2-methylthieno[2,3-d]pyrimidin-4-yl]methyl}-3,3-dimethylpiperazin-1-yl)-2-hydroxyethanone] are 46 nM and 159%.
For `Cc1nc(CN2CCSCC2)c2cc(C3CCC(C)(C)CC3)sc2n1` [Ex74], in that order: 190 nM and 244%.
Consider `Cc1nc(CN2CC[C@@H](O)[C@@H](F)C2)c2cc(C3CCC(C)(C)CC3)sc2n1` [Ex143], for which the EC50 came to 1200 nM. Also, under setting [1], the Emax was found to be 182%.
For `Cc1nc(CN2CCCC(C)(C)C2)c2cc(C3CCC(C)(C)CC3)sc2n1` [Ex45], the EC50 was found to be 440 nM. Besides, the Emax under setting [1] came out at 134%.
For `Cc1nc(CN2CCC(O)C(F)C2)c2cc(C3CCC(C)(C)CC3)sc2n1` (stereo not drawn) [Ex51], in that order: 150 nM and 249%.
Turning to `Cc1nc(CN2CCN(C)CC2(C)C)c2cc(C3CCC(C)(C)CC3)sc2n1` [Ex151], the EC50 was found to be 120 nM. Moreover, the Emax under setting [1] is 168%.
On the same counts, the results for `Cc1nc(CN2CCC(O)C(CO)C2)c2cc(C3CCC(C)(C)CC3)sc2n1` (stereo not drawn) [Ex127] are 110 nM and 338%.
On the same counts, the results for `Cc1nc(CN2CCC(C)(O)CC2)c2cc(C3CCC(C)(C)CC3)sc2n1` [Ex47] are 120 nM and 240%.
On to `Cc1nc(CN2CC[C@@H](O)[C@H](O)C2)c2cc(C3CCC(C)(C)CC3)sc2n1` [Ex5], for which the EC50 came out at 240 nM. For the same compound, the Emax under setting [1] was found to be 176%.
On the same counts, the results for `CCC1(O)CCN(Cc2nc(C)nc3sc(C4CCC(C)(C)CC4)cc23)CC1` [Ex48] are 260 nM and 238%.
For the compound `Cc1nc(CN2CC[C@@H](O)[C@H](O)C2)c2cc(C3CCC(C)(C)CC3)sc2n1` (single isomer, unassigned) [Ex31-1, trans-1-{[6-(4,4-dimethylcyclohexyl)-2-methylthieno[2,3-d]pyrimidin-4-yl]methyl}piperidine-3,4-diol], the EC50 worked out at 180 nM. For the same compound, the “Efficacy (PAM Efficacy of GABAB)” value under setting [1] came out at 191%.
In the case of `Cc1nc(CN2CCC(CO)(CO)CC2)c2cc(C3CCC(C)(C)CC3)sc2n1` [Ex7], the EC50 amounted to 240 nM. In addition, under setting [1], the Emax stood at 139%.
Turning to `Cc1nc(CN2CCOCC2(C)C)c2cc(C3CCC(C)(C)CC3)sc2n1` [Ex79], the EC50 was 46 nM. The Emax under setting [1] is 230%.
On the same counts, the results for `Cc1nc(CN2CC[C@@H](O)[C@@H](O)C2)c2cc(C3CCC(C)(C)CC3)sc2n1` [Ex54] are 320 nM and 88%.
Take `Cc1nc(CN2CCC3(CC2)CC3)c2cc(C3CCC(C)(C)CC3)sc2n1` [Ex43]: the EC50 amounted to 260 nM. For the same compound, the Emax under setting [1] turned out to be 118%.
For `Cc1nc(CN2CCC(O)(C(F)(F)F)CC2)c2cc(C3CCC(C)(C)CC3)sc2n1` [Ex12], in that order: 230 nM and 377%.
For `COCC1(O)CCN(Cc2nc(C)nc3sc(C4CCC(C)(C)CC4)cc23)CC1` [Ex50], in that order: 540 nM and 222%.
As to `Cc1nc(CN2CCC(O)CC2)c2cc(C3CCC(C)(C)CC3)sc2n1` [Ex52, 1-{[6-(4,4-dimethylcyclohexyl)-2-methylthieno[2,3-d]pyrimidin-4-yl]methyl}piperidin-4-ol hydrochloride], the EC50 was 170 nM. Further, under setting [1], the Emax stood at 259%.
For `Cc1nc(CN2CCC(O)(CO)CC2)c2cc(C3CCC(C)(C)CC3)sc2n1` [Ex4], in that order: 200 nM and 161%.
Turning to `Cc1nc(CN2CCOC(C)(C)C2)c2cc(C3CCC(C)(C)CC3)sc2n1` [Ex40], the EC50 turned out to be 530 nM. The Emax under setting [1] was 203%.
On to `Cc1nc(CN2CCOCC2)c2cc(C3CCC(C)(C)CC3)sc2n1` [Ex132], for which the EC50 was 150 nM. Further, the Emax under setting [1] worked out at 218%.
On the same counts, the results for `Cc1nc(CN2CCS(=O)(=O)CC2)c2cc(C3CCC4(CC3)CC4)sc2n1` [Ex108, 4-[(1,1-dioxidothiomorpholin-4-yl)methyl]-2-methyl-6-(spiro[2.5]octa-6-yl)thieno[2,3-d]pyrimidine] are 200 nM and 176%.
For the compound `Cc1nc(CN2CCC[C@@H](O)C2)c2cc(C3CCC(C)(C)CC3)sc2n1` [Ex72], the EC50 amounted to 89 nM. Moreover, the Emax under setting [1] was 289%.
Consider `Cc1nc(CN2CCC(O)CC2(C)C)c2cc(C3CCC(C)(C)CC3)sc2n1` (stereo not drawn) [Ex142], for which the EC50 came out at 7.1 nM. Moreover, the Emax under setting [1] stood at 214%.
On the same counts, the results for `Cc1nc(CN2CCC(C(F)F)CC2)c2cc(C3CCC(C)(C)CC3)sc2n1` [Ex61] are 240 nM and 160%.
On the same counts, the results for `Cc1nc(CN2CCOC[C@@H]2CO)c2cc(C3CCC(C)(C)CC3)sc2n1` [Ex102] are 400 nM and 127%.
Regarding `Cc1nc(CN2CCC(O)C(C)(C)C2)c2cc(C3CCC(C)(C)CC3)sc2n1` (stereo not drawn) [Ex146], the EC50 worked out at 100 nM. Under setting [1], the Emax was 258%.
In the case of `Cc1nc(CN2CCC(F)(F)CC2)c2cc(C3CCC(C)(C)CC3)sc2n1` [Ex55], the EC50 is 250 nM. Further, the Emax under setting [1] worked out at 175%.
Consider `Cc1nc(CN2CCC[C@H](O)C2)c2cc(C3CCC(C)(C)CC3)sc2n1` [Ex73], for which the EC50 was 85 nM. The Emax under setting [1] amounted to 272%.
For `Cc1nc(CN2CC[C@H](O)[C@@H](F)C2)c2cc(C3CCC(C)(C)CC3)sc2n1` [Ex144], in that order: 310 nM and 182%.
For `CC(=O)N1CCN(Cc2nc(C)nc3sc(C4CCC(C)(C)CC4)cc23)C(C)(C)C1` [Ex153, 1-(4-{[6-(4,4-dimethylcyclohexyl)-2-methylthieno[2,3-d]pyrimidin-4-yl]methyl}-3,3-dimethylpiperazin-1-yl)ethanone hydrochloride], in that order: 59 nM and 180%.
On the same counts, the results for `Cc1nc(CN2CCOC[C@H]2CO)c2cc(C3CCC(C)(C)CC3)sc2n1` [Ex101] are 380 nM and 134%.
With `Cc1nc(CN2CC[C@@H](O)[C@](C)(O)C2)c2cc(C3CCC(C)(C)CC3)sc2n1` [Ex104], the EC50 came to 79 nM. For the same compound, the Emax under setting [1] was 218%.
Turning to `Cc1nc(CN2C[C@@H](C)O[C@@H](C)C2)c2cc(C3CCC(C)(C)CC3)sc2n1` [Ex39], the EC50 is 420 nM. In addition, the Emax under setting [1] is 165%.
In the case of `COC1(CO)CCN(Cc2nc(C)nc3sc(C4CCC(C)(C)CC4)cc23)CC1` [Ex46], the EC50 came to 180 nM. Further, under setting [1], the Emax is 188%.

The values above are taken from patent publication US9051339B2, “Sulfur-containing bicyclic compound” (Astellas Pharma Inc., priority 2013, dated 2015).
